# Columns and labels:
# tympanic membrane (TM) [1] = test: Titer of phage recovered from within the TM (homogenate) after one-hour application to the external TM surface; assay type: in vivo, Sprague Dawley rats; conditions: 10^9 PFU in 10 μL PBS, six infected rats, PBS and 0.2 M glycine acid wash (pH 2.2), TM homogenized, titered on E. coli, mean of six
# Description: Each peptide phage was applied to the external TM surface (10^9 PFU in 10 μL of PBS) of six previously infected rats, ensuring that the entire membrane surface was covered for one hour.
# tympanic membrane (TM) [2] = conditions: recovery from ME lumen after one-hour application to external TM surface; cited from earlier work
# Description: Each peptide phage was applied to the external TM surface (10^9 PFU in 10 μL of PBS) of six previously infected rats, ensuring that the entire membrane surface was covered for one hour. The phage solution was removed from the ex ...
# [3] = test system: tympanic membrane (TM) cells; test: Confocal imaging of immunolabeled phage within the tympanic membrane after one-hour application to the external TM surface in vivo; design: species or system Sprague Dawley rats
# Description: Rodent cocktail (2.0 mg/kg xylazine and 40.0 mg/kg ketamine i.m.) was employed for anesthesia. The ME bulla was exposed via a ventral midline neck incision. A 25 g needle was used to make a small opening in the bullar bone, through which 5 × 10^4 CFUs of nontypeable Haemophilus influenzae (NTHi) type 3655 [20] was injected, in 50 μL of BHI media using a 30 g needle. Care was taken to avoid damaging the tympanic membrane, ossicles, or inner ear. Animals survived for 48 h to allow for an ME infection to develop, which was confirmed by TM visualization. Phages were then applied to the external TM surface in vivo for one hour in 10^9 PFUs ([…] forming units) in 10 μL of PBS, ensuring the entire surface of the membrane was covered.
# For confocal microscopy, TMT3 and WT phages were employed. The animal was sacrificed, the phage solution removed, and the TM washed 3× with PBS to remove any remaining phage solution, then 2× with acid wash to remove phages bound to the TM, followed by 2× with PBS. The bulla was then dissected and opened, the interior TM surfaces were washed as above, and the TM was fixed in cold 4% PFA overnight. The TM was dissected from the annular bone and additionally washed 2× with PBS, and the manubrium of the malleus carefully removed. The membrane was incubated in tissue-penetration and blocking solution (5% Triton X and 10% fetal bovine serum (FBS) in PBS) for one hour at room temperature. The TMs were again washed 2× in PBS and incubated in primary antibody (M13 anti-phage coat protein, rabbit polyclonal antibody, Invitrogen PA1-26758, 1:100) overnight at 4 °C. TMs were washed 2× in PBS and incubated with a secondary antibody (FITC-labeled anti-rabbit, Jackson Immuno, 711-095-152) previously treated with DyLight 405 stain for enhanced visualization (Jackson Immuno 711-475-152) at 1:100 concentration for three hours at room temperature with light protection. TMs were again washed with PBS 2× and stained with DAPI (Novus NPB2-31156, 1:1000, 30 min at room temperature with light protection). Some TMs were also incubated with Texas Red-X Phalloidin (Invitrogen T7471, F-actin staining) at 1:500 concentration for one and one-half hours at room temperature and light protection to stain actin. After incubations, TMs were washed 2× with PBS and mounted with the external surface uppermost using antifade, hard-mount media (Vectashield, VectaLabs H-1400). Control TMs were exposed for 1 h to PBS in vivo and then identically treated.
# The localization of the phage was evaluated via fluorescence confocal microscopy. TMs were imaged on a Leica SP8 Confocal with Lightning-adaptive deconvolution or an Olympus FV1000 Confocal with SIM Scanner, and 60× and 100× image stacks were generated for rendering of stained TMs. Image stacks were post-processed using Velocity high-performance software to generate images. Separate portions of the stacks were used to visualize phages in the external epithelium, the middle fibrous layer, and the inner mucosal epithelium.
# [4] = NTHi-infected ME, 10^9 PFU in 10 μL PBS, one hour, confocal, ImageJ count
Sequence,phage titer recovered from within the TM (in words) (tympanic membrane (TM) [1]),trans-TM transport rate (in words) (tympanic membrane (TM) [2]),"mean number of puncta per cell, external epithelium of the TM ([3]; NTHi-infected ME, 10^9 PFU in 10 μL PBS on external TM surface, one hour, anti-M13 immunolabel, confocal, ImageJ count, s.d. 43.1)","median number of puncta per cell, external epithelium of the TM [3, 4]","median number of puncta per cell, inner mucosal epithelium of the TM [3, 4]","mean number of puncta per cell, inner mucosal epithelium of the TM ([3]; NTHi-infected ME, 10^9 PFU in 10 μL PBS, one hour, confocal, ImageJ count, significantly less than external epithelium (p 0.002))","phage content of the cells with the highest numbers (mucosal cells comparable to external epithelium) ([3]; one-hour application, confocal, ImageJ count)","presence of phage within TM cells by immunolabeling (in words) ([3]; one-hour incubation on the external canal TM surface, confocal imaging)"
TLSPKMPGGGYW [TMT2],significantly higher than those of TMT3,low transport rate,,,,,,
SADSTKTTHLTL [TMT3],higher than that of TMT3 (18)-1,high transport rate,139.2 puncta per cell,110 puncta per cell,23 puncta per cell,42.9 (s.d. 44.8) puncta per cell,200–250 puncta/cell,clearly intracellular and are restricted to the cell cytoplasm
